Measurements: US20240293379A1, “THERAPEUTIC AGENT FOR CANCER OF PATIENT WITH DECREASE IN RB1 FUNCTION USING MYT1 INHIBITOR AND CHEMOTHERAPEUTIC AGENT IN COMBINATION, AND TREATMENT METHOD THEREOF” (Chugai Seiyaku Kabushiki Kaisha, priority 2022, published 2024)
Like-named read-outs stand apart in the source and are kept apart here.

Key:
Assay in all cases: Pemetrexed cytotoxicity test upon suppression of expression of MYT1
Assay type in all cases: cell-based
[1] = tested on: A549; conditions: Homo sapiens, A549 (RB1 wild-type), 7 days
Experimental: (§1) Thereafter, the plates were shaken to transfect each siRNA at a final concentration of 10 nM.
(§2) The −Log 2 value of fold change of IC50 and the maximum value of Bliss score, which are indexes of the combination effect, were calculated by comparing with the actually obtained cell survival curve, and described in Table 6 (see Non Patent Literature 9).

[2] = tested on: ABC-1; conditions: Homo sapiens, ABC-1 (RB1 wild-type), 7 days
Experimental: as §1, §2

[3] = tested on: ChaGo-K-1; conditions: Homo sapiens, ChaGo-K-1 (RB1 mutant), 7 days
Experimental: as §1, §2

[4] = tested on: EKVX; conditions: Homo sapiens, EKVX (RB1 wild-type), 7 days
Experimental: as §1, §2

[5] = tested on: LU65; conditions: Homo sapiens, LU65 (RB1 mutant), 7 days
Experimental: as §1, §2

[6] = tested on: NCI-H1155; conditions: Homo sapiens, NCI-H1155 (RB1 mutant), 7 days
Experimental: as §1, §2

[7] = tested on: NCI-H1666; conditions: Homo sapiens, NCI-H1666 (RB1 wild-type), 7 days
Experimental: as §1, §2

[8] = tested on: NCI-H1993; conditions: Homo sapiens, NCI-H1993 (RB1 wild-type), 7 days
Experimental: as §1, §2

[9] = tested on: NCI-H2110; conditions: NCI-H2110 (RB1 mutant), 7 days
Experimental: as §1, §2

[10] = tested on: NCI-H2122; conditions: Homo sapiens, NCI-H2122 (RB1 wild-type), 7 days
Experimental: as §1, §2

[11] = tested on: NCI-H292; conditions: Homo sapiens, NCI-H292 (RB1 wild-type), 7 days
Experimental: as §1, §2

[12] = tested on: NCI-H322; conditions: NCI-H322 (RB1 wild-type), 7 days
Experimental: as §1, §2

[13] = tested on: NCI-H358; conditions: Homo sapiens, NCI-H358 (RB1 wild-type), 7 days
Experimental: as §1, §2

[14] = tested on: NCI-H441; conditions: Homo sapiens, NCI-H441 (RB1 wild-type), 7 days
Experimental: as §1, §2

[15] = tested on: NCI-H460; conditions: Homo sapiens, NCI-H460 (RB1 wild-type), 7 days
Experimental: as §1, §2

[16] = tested on: NCI-H596; conditions: Homo sapiens, NCI-H596 (RB1 mutant), 7 days
Experimental: as §1, §2

[17] = tested on: NCI-H661; conditions: Homo sapiens, NCI-H661 (RB1 wild-type), 7 days
Experimental: as §1, §2

[18] = tested on: PC-9; conditions: Homo sapiens, PC-9 (RB1 wild-type), 7 days
Experimental: as §1, §2

[19] = read-out: IC50 of pemetrexed, MYT1 #16, MYT1 siRNA #16 10 nM
[20] = read-out: IC50 of pemetrexed, MYT1 #18, MYT1 siRNA #18 10 nM
[21] = read-out: IC50 of pemetrexed, NT, negative control siRNA 10 nM

## Nc1nc2[nH]cc(CCc3ccc(C(=O)N[C@@H](CCC(=O)O)C(=O)O)cc3)c2c(=O)[nH]1 [pemetrexed]
[1]; [19]
  IC50: 1530 nM
[1]; [20]
  IC50: 1950 nM
[1]; [21]
  IC50: 2850 nM
[2]; [19]
  IC50: 363 nM
[2]; [20]
  IC50: 313 nM
[2]; [21]
  IC50: 973 nM
[3]; [19]
  IC50: 133 nM
[3]; [20]
  IC50: 192 nM
[3]; [21]
  IC50: 914 nM
[4]; [19]
  IC50: 166 nM
[4]; [20]
  IC50: 263 nM
[4]; [21]
  IC50: 404 nM
[5]; Lu-65, read-out: IC50 of pemetrexed, MYT1 #16, MYT1 siRNA #16 10 nM
  IC50: 134 nM
[5]; Lu-65, read-out: IC50 of pemetrexed, MYT1 #18, MYT1 siRNA #18 10 nM
  IC50: 140 nM
[5]; Lu-65, read-out: IC50 of pemetrexed, NT, negative control siRNA 10 nM
  IC50: 1070 nM
[6]; [19]
  IC50: 673 nM
[6]; [20]
  IC50: 1650 nM
[6]; [21]
  IC50: 9840 nM
[7]; [19]
  IC50: 473 nM
[7]; [20]
  IC50: 291 nM
[7]; [21]
  IC50: 619 nM
[8]; [19]
  IC50: 24.6 nM
[8]; [20]
  IC50: 106 nM
[8]; [21]
  IC50: 181 nM
[9]; [19]
  IC50: 10.5 nM
[9]; [20]
  IC50: 41.4 nM
[9]; [21]
  IC50: 227 nM
[10]; [19]
  IC50: 13.5 nM
[10]; [20]
  IC50: 47.2 nM
[10]; [21]
  IC50: 159 nM
[11]; [19]
  IC50: 71.1 nM
[11]; [20]
  IC50: 187 nM
[11]; [21]
  IC50: 391 nM
[12]; [19]
  IC50: 1030 nM
[12]; [20]
  IC50: 805 nM
[12]; [21]
  IC50: 1600 nM
[13]; [19]
  IC50: 531 nM
[13]; [20]
  IC50: 333 nM
[13]; [21]
  IC50: 986 nM
[14]; [19]
  IC50: 95.6 nM
[14]; [20]
  IC50: 865 nM
[14]; [21]
  IC50: 884 nM
[15]; [19]
  IC50: 465 nM
[15]; [20]
  IC50: 563 nM
[15]; [21]
  IC50: 667 nM
[16]; [19]
  IC50: 7.01 nM
[16]; [20]
  IC50: 21 nM
[16]; [21]
  IC50: 385 nM
[17]; [19]
  IC50: 45.7 nM
[17]; [20]
  IC50: 129 nM
[17]; [21]
  IC50: 315 nM
[18]; [19]
  IC50: 32.9 nM
[18]; [20]
  IC50: 77.7 nM
[18]; [21]
  IC50: 145 nM
